Experimental findings from patent publication US10894807B2 (Siemens Medical Solutions USA, Inc., priority 2011, dated 2021) are described below.

For the test, the target named is human PSMA (Homo sapiens (Human), UniProt Q04609). Kind of test: Enzymatic assay for in vitro evaluation of PSMA inhibitors (fluorescent assay of PSMA activity, NAAG substrate, OPA detection of glutamate). The test is classed as biochemical.

pKi: −log10 of the molar value. A value given as a limit tells only on which side of the number the result lay.

One may read the pKi as the Ki on a negative log10 scale, so that one unit is a factor of ten.

Chain of human PSMA (Q04609 whole entry): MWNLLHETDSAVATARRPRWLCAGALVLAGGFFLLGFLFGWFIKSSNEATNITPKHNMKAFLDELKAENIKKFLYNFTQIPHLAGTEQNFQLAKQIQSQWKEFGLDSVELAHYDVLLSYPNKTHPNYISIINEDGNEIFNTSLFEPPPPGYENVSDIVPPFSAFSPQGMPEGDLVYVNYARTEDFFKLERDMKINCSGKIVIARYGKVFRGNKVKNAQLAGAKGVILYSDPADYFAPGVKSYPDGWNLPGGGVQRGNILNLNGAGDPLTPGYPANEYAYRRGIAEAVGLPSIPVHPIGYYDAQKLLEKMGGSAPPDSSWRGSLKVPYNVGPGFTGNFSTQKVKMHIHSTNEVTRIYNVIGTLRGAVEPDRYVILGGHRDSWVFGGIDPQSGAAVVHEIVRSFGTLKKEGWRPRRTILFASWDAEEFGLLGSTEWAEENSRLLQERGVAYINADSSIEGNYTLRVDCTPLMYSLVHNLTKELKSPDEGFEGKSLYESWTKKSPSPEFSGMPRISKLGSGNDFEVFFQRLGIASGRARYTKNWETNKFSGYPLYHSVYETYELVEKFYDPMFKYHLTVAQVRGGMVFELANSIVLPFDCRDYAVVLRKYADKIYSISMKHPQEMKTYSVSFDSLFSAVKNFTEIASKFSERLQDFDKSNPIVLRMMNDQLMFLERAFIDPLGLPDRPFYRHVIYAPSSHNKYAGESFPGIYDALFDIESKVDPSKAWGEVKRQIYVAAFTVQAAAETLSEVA

Regarding `O=C(O)CC[C@H](NC(=O)N[C@@H](CCCCNc1nc(-c2ccc3c(c2)OCO3)cs1)C(=O)O)C(=O)O` [P235, (S)-2-(3-((S)-5-(4-(Benzo[d][1,3]dioxol-5-yl)thiazol-2-ylamino)-1-carboxypentyl)ureido)-pentanedioic Acid], the pKi was over 9.52 and the “PSMA Blkg % (1.0 μM)” value is recorded as 100%.

Turning to `O=C(O)CC[C@H](NC(=O)N(O)[C@@H](CCCCNC(=O)c1ccc(F)cc1)C(=O)O)C(=O)O` [P169, (S)-2-(3-((S)-1-Carboxy-5-(4-fluorobenzamido)pentyl)-3-hydroxyureido)pentanedioic Acid], the pKi is 6.81. In addition, the “PSMA Blkg % (10 μM)” value (compound at 10 μM) was 79%.

In the case of `O=C(O)CC[C@@H](C(=O)O)N(O)C(=O)N[C@@H](CCCCNC(=O)OCc1ccccc1)C(=O)O` [P140, (9S,13S)-12-Hydroxy-3,11-dioxo-1-phenyl-2-oxa-4,10,12-triazapentadecane-9,13,15-tricarboxylic Acid], under “compound at 10 μM”, the “PSMA Blkg % (10 μM)” value came to 64%.

`O=C(O)CC[C@H](NC(=O)N(O)C(CCCCNC(=O)c1ccc(NC(=O)c2ccc(F)cc2)cc1)C(=O)O)C(=O)O` (stereo partly drawn) [P171]: the “PSMA Blkg % (10 μM)” value (compound at 10 μM) is listed as 87%.

As for `O=C(O)CCC(NC(=O)N[C@@H](CCCCNc1cc(OCC(COc2ccc([N+](=O)[O-])c(NCCCCC(NC(=O)N[C@@H](CCC(=O)O)C(=O)O)C(=O)O)c2)OCc2cn(CCF)nn2)ccc1[N+](=O)[O-])C(=O)O)C(=O)O` (stereo in doubt) [P277, (2S)-2-(3-((1S)-1-Carboxy-5-((5-(3-(3-(((S)-5-carboxy-5-(3-((S)-1,3-dicarboxypropyl)ureido)pentyl)amino)-4-nitrophenoxy)-2-((1-(2-fluoroethyl)-1H-1,2,3-triazol-4-yl)methoxy)propoxy)-2-nitrophenyl)amino)pentyl)ureido)pentanedioic Acid], the pKi is 9.40.

Turning to `O=C(O)Cn1cc(C[C@H](NC(=O)N[C@@H](CCCCNC(=O)OCc2ccccc2)C(=O)O)C(=O)O)nn1` [P192, (9S,13S)-9-Carboxy-13-((1-(carboxymethyl)-1H-1,2,3-triazol-4-yl)methyl)-3,11-dioxo-1-phenyl-2-oxa-4,10,12-triazatetradecan-14-oic Acid], the “PSMA Blkg % (10 μM)” value (10 μM) is on record as 29%.

In turn, `O=C(O)CC[C@H](NC(=O)N[C@@H](CCCCNC(=O)CCCn1cc(CCCF)nn1)C(=O)O)C(=O)O` [P045, (S)-2-(3-((S)-1-Carboxy-5-(4-(4-(3-fluoropropyl)-1H-1,2,3-triazol-1-yl)-butanamido)pentyl)ureido)pentanedioic Acid] gave a pKi of 7.96. In addition, the “PSMA Blkg % (10 μM)” value (compound at 10 μM) is listed as 95%.

As to `O=C(O)CC[C@H](NC(=O)N[C@@H](CCCCNC(=O)c1ccnc(F)c1)C(=O)O)C(=O)O` [P004, (S)-2-(3-((S)-1-Carboxy-5-(2-fluoroisonicotinamido)pentyl)ureido)pentanedioic Acid], the negative logarithm of the Ki (pKi) is 7.81. Further, the “PSMA Blkg % (10 μM)” value (compound at 10 μM) was 90%.

Turning to `O=C(O)CC[C@H](NC(=O)N[C@@H](CC1CCN(C(=O)c2cc(C(=O)O)cc(-n3cc(CCCF)nn3)c2)CC1)C(=O)O)C(=O)O` [P284, (S)-2-(3-((S)-1-Carboxy-2-(1-(3-carboxy-5-(4-(3-fluoropropyl)-1H-1,2,3-triazol-1-yl)benzoyl)piperidin-4-yl)ethyl)ureido)pentanedioic Acid], the “PSMA Blkg % (1.0 μM)” value worked out at 96%.

As to `O=C(O)CC[C@H](NC(=O)N1CCC[C@H]1C(=O)O)C(=O)O` [P075, (S)-2-((S)-2-Carboxypyrrolidine-1-carboxamido)pentanedioic Acid], for the setting “compound at 10 μM”, the “PSMA Blkg % (10 μM)” value is listed as 32%.

Regarding `O=C(Cn1cc(CCCF)nn1)NCCCC[C@H](NC(=O)Nc1cc(C(=O)O)cc(C(=O)O)c1)C(=O)O` [P007, (S)-5-(3-(1-Carboxy-5-(2-(4-(3-fluoropropyl)-1H-1,2,3-triazol-1-yl)acetamido)pentyl)-ureido)isophthalic Acid], under “compound at 10 μM”, the “PSMA Blkg % (10 μM)” value was determined as 0%.

Regarding `O=C(O)CC[C@H](NC(=O)C[C@@H](NC(=O)CCNC(=O)OCc1ccccc1)C(=O)O)C(=O)O` [P239, (9R,13S)-3,7,11-Trioxo-1-phenyl-2-oxa-4,8,12-triazapentadecane-9,13,15-tricarboxylic Acid], the “PSMA Blkg % (1.0 μM)” value came to 33%.

As for `O=C(O)CC[C@H](NC(=O)N(CC(=O)O)[C@@H](CCCCNC(=O)OCc1ccccc1)C(=O)NO)C(=O)O` [P012, (S)-2-(3-((S)-6-(((Benzyloxy)carbonyl)amino)-1-(hydroxyamino)-1-oxohexan-2-yl)-3-(carboxymethyl)ureido)pentanedioic Acid], where the note is “compound at 10 μM”, the “PSMA Blkg % (10 μM)” value worked out at 0%.

On to `O=C(O)CC[C@H](NC(=O)N[C@@H](CCCCn1c(=O)[nH]c2ccc(OCc3cn(CCF)nn3)cc21)C(=O)O)C(=O)O` [P247, (S)-2-(3-((S)-1-Carboxy-5-(6-((1-(2-fluoroethyl)-1H-1,2,3-triazol-4-yl)methoxy)-2-oxo-2,3-dihydro-1H-benzo[d]imidazol-1-yl)pentyl)ureido)pentanedioic Acid], for which the pKi is 9.20 and the “PSMA Blkg % (1.0 μM)” value is given as 100%.

Turning to `O=C(O)CC[C@H](NC(=O)C[C@@H](NC(=O)CCCCCNC(=O)OCc1ccccc1)C(=O)O)C(=O)O` [P209, (12R,16S)-3,10,14-Trioxo-1-phenyl-2-oxa-4,11,15-triazaoctadecane-12,16,18-tricarboxylic Acid], the “PSMA Blkg % (10 μM)” value (10 μM) came out at 44%.

As for `O=C(O)CC[C@H](NC(=O)NCC(=O)O)C(=O)O` [P022, (S)-2-(3-(Carboxymethyl)ureido)pentanedioic Acid], the “PSMA Blkg % (10 μM)” value (compound at 10 μM) is recorded as 77%.

Take `CN(C(=O)N[C@@H](CCC(=O)O)C(=O)O)[C@@H](CCCCNC(=O)Cn1cc(CCCF)nn1)C(=O)O` [P032, (S)-2-(3-((S)-1-Carboxy-5-(2-(4-(3-fluoropropyl)-1H-1,2,3-triazol-1-yl)acetamido)pentyl)-3-methylureido)pentanedioic Acid]: where the note is “compound at 10 μM”, the “PSMA Blkg % (10 μM)” value stood at 50%.

For the compound `O=C(O)CCNC(=O)N[C@@H](CCC(=O)O)C(=O)O` [P026, (S)-2-(3-(2-Carboxyethyl)ureido)pentanedioic Acid], the “PSMA Blkg % (10 μM)” value (compound at 10 μM) turned out to be 2%.

`O=C(O)CC[C@H](NC(=S)N(O)C(CCCCNC(=O)OCc1ccccc1)C(=O)O)C(=O)O` (stereo partly drawn) [P071, (13S)-10-Hydroxy-3-oxo-1-phenyl-11-thioxo-2-oxa-4,10,12-triazapentadecane-9,13,15-tricarboxylic Acid]: the pKi is 7.51. Besides, where the note is “compound at 10 μM”, the “PSMA Blkg % (10 μM)” value came out at 96%.

Regarding `CCN(C(=O)N[C@@H](CCC(=O)O)C(=O)O)[C@@H](CCCCNC(=O)OCc1ccccc1)C(=O)O` [P035, (9S, 13S)-10-Ethyl-3,11-dioxo-1-phenyl-2-oxa-4,10,12-triazapentadecane-9,13,15-tricarboxylic Acid], under “compound at 10 μM”, the “PSMA Blkg % (10 μM)” value amounted to 0%.

In the case of `O=C(O)CC[C@H](NC(=O)N[C@@H](CCCCNC(=O)c1cc(C(=O)N2CCN(C(=O)Nc3ccc(C[C@H](NC(=O)N[C@@H](CCC(=O)O)C(=O)O)C(=O)O)cc3)CC2)cc(-n2cc(CCCF)nn2)c1)C(=O)O)C(=O)O` [P286, (S)-2-(3-((S)-1-Carboxy-2-(4-(4-(3-(((S)-5-carboxy-5-(3-((S)-1,3-dicarboxypropyl)ureido)pentyl)carbamoyl)-5-(4-(3-fluoropropyl)-1H-1,2,3-triazol-1-yl)benzoyl)piperazine-1-carboxamido)phenyl)ethyl)ureido)pentanedioic Acid], the pKi is 7.90 and the “PSMA Blkg % (1.0 μM)” value is listed as 92%.

Consider `O=C(O)CC[C@H](NC(=O)C[C@@H](NC(=O)OCC1c2ccccc2-c2ccccc21)C(=O)O)C(=O)O` [P199, (S)-2-[(R)-((((9H-Fluoren-9-yl)methoxy)carbonyl)amino)-3-carboxypropanamido]pentanedioic Acid], for which the pKi was under 6.73. For the same compound, the “PSMA Blkg % (10 μM)” value (10 μM) came out at 82%.

Take `NCCOCCOCCOCCOCc1cn(-c2cc(C(=O)Nc3ccc(C[C@H](NC(=O)N[C@@H](CCC(=O)O)C(=O)O)C(=O)O)cc3)cc(C(=O)Nc3ccc(C[C@H](NC(=O)N[C@@H](CCC(=O)O)C(=O)O)C(=O)O)cc3)c2)nn1` [P294, (2S,2′S)-2,2′-(((((1S,1′S)-(((5-(4-(13-Amino-2,5,8,11-tetraoxatridecyl)-1H-1,2,3-triazol-1-yl)isophthaloyl)bis(azanediyl))bis(4,1-phenylene))bis(1-carboxyethane-2,1-diyl))-bis(azanediyl))bis(carbonyl))bis(azanediyl))dipentanedioic Acid]: the “PSMA Blkg % (1.0 μM)” value came to 99%.

`O=C(O)CC[C@H](NC(=O)NC(Cc1ccc(NC(=O)N2CCN(C(=O)c3cc(NC(=O)Cn4cc(CCCF)nn4)cc(C(=O)N4CCN(C(=O)Nc5ccc(CC(NC(=O)N[C@@H](CCC(=O)O)C(=O)O)C(=O)O)cc5)CC4)c3)CC2)cc1)C(=O)O)C(=O)O` (stereo in doubt) [P274, (2S,2′S)-2,2′-(((((1S,1′S)-(((4,4′-(5-(2-(4-(3-Fluoropropyl)-1H-1,2,3-triazol-1-yl)acetamido)isophthaloyl)bis(piperazine-1,1′-carbonyl))bis(azanediyl))bis(4,1-phenylene))bis(1-carboxyethane-2,1-diyl))bis(azanediyl))bis(carbonyl))bis(azanediyl))dipentanedioic Acid] showed a pKi of 7.88.

For the compound `O=C(O)CCC(NC(=O)NC(CC1CCN(C(=O)CCC(CCC(=O)N2CCC(C[C@H](NC(=O)NC(CCC(=O)O)C(=O)O)C(=O)O)CC2)NC(=O)c2ccc(-n3cc(CCCF)nn3)cc2)CC1)C(=O)O)C(=O)O` (stereo in doubt) [P292, (2S)-2-(3-((1S)-1-Carboxy-2-(1-(7-(4-((S)-2-carboxy-2-(3-((S)-1,3-dicarboxypropyl)-ureido)-ethyl)-piperidin-1-yl)-4-(4-(4-(3-fluoropropyl)-1H-1,2,3-triazol-1-yl)-benzamido)7-oxoheptanoyl)-piperidin-4-yl)ethyl)ureido)pentanedioic Acid], the pKi was 9.15 and the “PSMA Blkg % (1.0 μM)” value is reported as 96%.

Consider `Cc1ccc(S(=O)(=O)NCCCC[C@@H](C(=O)O)N(C)C(=O)N[C@@H](CCC(=O)O)C(=O)O)cc1` [P177, (S)-2-(3-((S)-1-Carboxy-5-(4-methylphenylsulfonamido)pentyl)-3-methylureido)pentanedioic Acid], for which the “PSMA Blkg % (10 μM)” value (compound at 10 μM) is 38%.

For the compound `O=C(O)CN(CC(=O)O)NC(=O)NC(CSCc1ccccc1)C(=O)O` (stereo not drawn) [P013, 2,2′-(2-((2-(Benzylthio)-1-carboxyethyl)carbamoyl)hydrazine-1,1-diyl)diacetic Acid], for the setting “compound at 10 μM”, the “PSMA Blkg % (10 μM)” value turned out to be 16%.
